According to patent US20120171126A1, “NOVEL [3,2-c] HETEROARYL STEROIDS AS GLUCOCORTICOID RECEPTOR AGONISTS COMPOSITIONS AND USES THEREOF” (priority 2009, published 2012):
Where two headings read alike, the source gives them in different places.

System: IL-8
Experiment: Glucocorticoid transrepression assay, IL-8 inhibition (TR)
Assay type: cell-based
Settings: Homo sapiens, NCl-H292 cells, TNFα 10 ng/ml; for Emax: read-out: IL-8 inhibition (TR) Emax % inhibition
Experimental: Human Lung epithelial cell line NCl-H292 cells were dissociated from stock flask using 0.05% trypsin/0.53 mM EDTA. Cells were suspended in complete medium and counted. Cells were plated in 96-well flat-bottom plates at 20K cells /well in 0.2 ml/well. Plates were incubated for 24-48 hours until cells were between 75-90% confluent. Medium was aspirated and replaced with medium containing various concentrations of steroids or antagonists. After 1 hour incubation at 37°, TNFα (10 ng/ml final concentration in 0.2 ml) was added and the cells incubated overnight. Control wells with and without TNF were included on each plate, as well as wells with TNF in addition to a maximum (10 μM) concentration of dexamethasone. The cell culture medium was sampled and IL-6 and IL-8 cytokine production was measured using the MSD Multi-Spot immunoassay.

CC12Cc3cnn(-c4ccc(F)cc4)c3C=C1CCC1C2[C@@H](O)CC2(C)C1CC[C@]2(O)C(=O)Cn1cc(-c2cccnc2)nn1 (stereo partly shown) [Compound 1]
IC50 (Table 6): 0.06 to 20 nM
Emax (Table 6): > 80%

CC12Cc3cnn(-c4ccc(F)cc4)c3C=C1CCC1C2[C@@H](O)CC2(C)C1CC[C@]2(O)C(=O)Nc1nc2cccnc2s1 (stereo partly shown) [Compound 1]
IC50 (Table 2): 0.06 to 20 nM
Emax (Table 2): > 80%

C[C@]12Cc3cnn(-c4ccc(F)cc4)c3C=C1CCC1C2[C@@H](O)C[C@@]2(C)C1CC[C@]2(O)C(=O)CN1CCN(c2nc3ccccc3o2)CC1 (stereo partly shown) [Compound 1]
IC50 (Table 5): 0.06 to 20 nM
Emax (Table 5): > 80%

C[C@]12Cc3cnoc3C=C1CCC1C2[C@@H](O)C[C@@]2(C)C1CC[C@]2(O)C(=O)CSc1nc2ccccc2o1 (stereo partly shown) [Compound 1]
Emax (Table 3): < 60%

C#CCN1CCN(CC(=O)[C@@]2(O)CCC3C4CCC5=Cc6c(cnn6-c6ccc(F)cc6)C[C@]5(C)C4[C@@H](O)C[C@@]32C)CC1 (stereo partly shown) [Compound 2]
Emax (Table 5): < 60%

CC12Cc3cnn(-c4ccc(F)cc4)c3C=C1CCC1C2[C@@H](O)CC2(C)C1CC[C@]2(O)C(=O)Cn1cc(Cc2ccccc2)nn1 (stereo partly shown) [Compound 2]
IC50 (Table 6): 0.06 to 20 nM
Emax (Table 6): > 80%

CC12Cc3cnn(-c4ccc(F)cc4)c3C=C1CCC1C2[C@@H](O)CC2(C)C1CC[C@]2(O)C(=O)Nc1nc2ccccc2s1 (stereo partly shown) [Compound 2]
IC50 (Table 2): 0.06 to 20 nM
Emax (Table 2): > 80%

C[C@]12Cc3cnoc3C=C1CCC1C2[C@@H](O)C[C@@]2(C)C1CC[C@]2(O)C(=O)CSc1cnc2ccccc2n1 (stereo partly shown) [Compound 2]
Emax (Table 3): < 60%

Cn1c(SCC(=O)[C@@]2(O)CCC3C4CCC5=Cc6c(cnn6-c6ccc(F)cc6)CC5(C)C4[C@@H](O)CC32C)nc2ccccc21 (stereo partly shown) [Compound 2]
IC50 (Table 1): 0.06 to 20 nM
Emax (Table 1): > 80%

CC12Cc3cnn(-c4ccc(F)cc4)c3C=C1CCC1C2[C@@H](O)CC2(C)C1CC[C@]2(O)C(=O)NCc1ccccc1 (stereo partly shown) [Compound 3]
IC50 (Table 2): 0.06 to 20 nM
Emax (Table 2): > 80%

CCOC(=O)c1cnn(CC(=O)[C@@]2(O)CCC3C4CCC5=Cc6c(cnn6-c6ccc(F)cc6)CC5(C)C4[C@@H](O)CC32C)c1 (stereo partly shown) [Compound 3]
IC50 (Table 7): 0.06 to 20 nM
Emax (Table 7): > 80%

C[C@]12Cc3cnn(-c4ccc(F)cc4)c3C=C1CCC1C2[C@@H](O)C[C@@]2(C)C1CC[C@]2(O)C(=O)CN1CCN(c2ccccn2)CC1 (stereo partly shown) [Compound 3]
IC50 (Table 5): 0.06 to 20 nM
Emax (Table 5): > 80%

C[C@]12Cc3cnoc3C=C1CCC1C2[C@@H](O)C[C@@]2(C)C1CC[C@]2(O)C(=O)CSc1ccccn1 (stereo partly shown) [Compound 3]
Emax (Table 3): < 60%

C[C@]12Cc3cnn(-c4ccc(F)cc4)c3C=C1CCC1C2[C@@H](O)C[C@@]2(C)C1CC[C@]2(O)C(=O)CN1CCN(c2ncccn2)CC1 (stereo partly shown) [Compound 4]
IC50 (Table 5): 0.06 to 20 nM
Emax (Table 5): > 80%

C[C@]12Cc3cnn(-c4ccc(F)cc4)c3C=C1CCC1C2[C@@H](O)C[C@@]2(C)C1CC[C@]2(O)C(=O)NC1(c2ccccc2)CC1 (stereo partly shown) [Compound 4]
IC50 (Table 2): 0.06 to 20 nM
Emax (Table 2): > 80%

C[C@]12Cc3cnoc3C=C1CCC1C2[C@@H](O)C[C@@]2(C)C1CC[C@]2(O)C(=O)CSc1ccc2ccccc2n1 (stereo partly shown) [Compound 4]
Emax (Table 3): < 60%

Cc1cnn(CC(=O)[C@@]2(O)CCC3C4CCC5=Cc6c(cnn6-c6ccc(F)cc6)CC5(C)C4[C@@H](O)CC32C)c1 (stereo partly shown) [Compound 4]
IC50 (Table 7): 0.06 to 20 nM
Emax (Table 7): > 80%

C#CCNC(=O)[C@@]1(O)CCC2C3CCC4=Cc5c(cnn5-c5ccc(F)cc5)C[C@]4(C)C3[C@@H](O)C[C@@]21C (stereo partly shown) [Compound 5]
IC50 (Table 2): 0.06 to 20 nM
Emax (Table 2): > 80%

CC12Cc3cnn(-c4ccc(F)cc4)c3C=C1CCC1C2[C@@H](O)CC2(C)C1CC[C@]2(O)C(=O)CSc1ccccn1 (stereo partly shown) [Compound 5]
IC50 (Table 1): 0.06 to 20 nM
Emax (Table 1): > 80%

C[C@]12Cc3cnn(-c4ccc(F)cc4)c3C=C1CCC1C2[C@@H](O)C[C@@]2(C)C1CC[C@]2(O)C(=O)CN1CCN(Cc2ccc(C(F)(F)F)cc2)CC1 (stereo partly shown) [Compound 5]
IC50 (Table 5): 0.06 to 20 nM
Emax (Table 5): > 80%

Cn1c(SCC(=O)[C@@]2(O)CCC3C4CCC5=Cc6oncc6C[C@]5(C)C4[C@@H](O)C[C@@]32C)nc2ccccc21 (stereo partly shown) [Compound 5]
IC50 (Table 3): 401 to 1000 nM
Emax (Table 3): < 60%

CC12Cc3cnn(-c4ccc(F)cc4)c3C=C1CCC1C2[C@@H](O)CC2(C)C1CC[C@]2(O)C(=O)CSc1cnc2ccccc2n1 (stereo partly shown) [Compound 6]
IC50 (Table 1): 0.06 to 20 nM
Emax (Table 1): > 80%

C[C@@H](NC(=O)[C@@]1(O)CCC2C3CCC4=Cc5c(cnn5-c5ccc(F)cc5)C[C@]4(C)C3[C@@H](O)C[C@@]21C)c1ccccc1 (stereo partly shown) [Compound 6]
IC50 (Table 2): 0.06 to 20 nM
Emax (Table 2): > 80%

C[C@]12Cc3cnoc3C=C1CCC1C2[C@@H](O)C[C@@]2(C)C1CC[C@]2(O)C(=O)CSc1nc2ccccc2s1 (stereo partly shown) [Compound 6]
Emax (Table 3): < 60%

CC12Cc3cnn(-c4ccc(F)cc4)c3C=C1CCC1C2[C@@H](O)CC2(C)C1CC[C@]2(O)C(=O)CSc1ncccn1 (stereo partly shown) [Compound 7]
IC50 (Table 1): 0.06 to 20 nM
Emax (Table 1): > 80%

C[C@@H](NC(=O)[C@@]1(O)CCC2C3CCC4=Cc5c(cnn5-c5ccc(F)cc5)C[C@]4(C)C3[C@@H](O)C[C@@]21C)c1cccc2ccccc12 (stereo partly shown) [Compound 7]
IC50 (Table 2): 0.06 to 20 nM
Emax (Table 2): > 80%

C[C@]12Cc3cnn(-c4ccc(F)cc4)c3C=C1CCC1C2[C@@H](O)C[C@@]2(C)C1CC[C@]2(O)C(=O)NC1(c2ncc(F)cc2F)CC1 (stereo partly shown) [Compound 8]
IC50 (Table 2): 0.06 to 20 nM
Emax (Table 2): > 80%

CC12Cc3cnn(-c4ccc(F)cc4)c3C=C1CCC1C2[C@@H](O)CC2(C)C1CC[C@]2(O)C(=O)CC#N (stereo partly shown) [Compound 9]
IC50 (Table 1): 0.06 to 20 nM
Emax (Table 1): > 80%

C[C@@H](NC(=O)[C@@]1(O)CCC2C3CCC4=Cc5c(cnn5-c5ccc(F)cc5)C[C@]4(C)C3[C@@H](O)C[C@@]21C)c1ccccn1 (stereo partly shown) [Compound 9]
IC50 (Table 2): 0.06 to 20 nM
Emax (Table 2): > 80%

CC12Cc3cnn(-c4ccc(F)cc4)c3C=C1CCC1C2[C@@H](O)CC2(C)C1CC[C@]2(O)C(=O)CSc1nc2cccnc2s1 (stereo partly shown) [Compound 10]
IC50 (Table 1): 0.06 to 20 nM
Emax (Table 1): > 80%

C[C@]12Cc3cnn(-c4ccc(F)cc4)c3C=C1CCC1C2[C@@H](O)C[C@@]2(C)C1CC[C@]2(O)C(=O)NCc1ccc2nccn2c1 (stereo partly shown) [Compound 10]
IC50 (Table 2): 0.06 to 20 nM
Emax (Table 2): > 80%

CC12Cc3cnn(-c4ccc(F)cc4)c3C=C1CCC1C2[C@@H](O)CC2(C)C1CC[C@]2(O)C(=O)CSc1nccc2ccccc12 (stereo partly shown) [Compound 11]
IC50 (Table 1): 0.06 to 20 nM
Emax (Table 1): > 80%

C[C@]12Cc3cnn(-c4ccc(F)cc4)c3C=C1CCC1C2[C@@H](O)C[C@@]2(C)C1CC[C@]2(O)C(=O)NCCc1cnccn1 (stereo partly shown) [Compound 11]
IC50 (Table 2): 0.06 to 20 nM
Emax (Table 2): > 80%

C[C@]12Cc3cnn(-c4ccc(F)cc4)c3C=C1CCC1C2[C@@H](O)C[C@@]2(C)C1CC[C@]2(O)C(=O)NCCc1nc2ccccc2o1 (stereo partly shown) [Compound 12]
IC50 (Table 2): 0.06 to 20 nM
Emax (Table 2): > 80%

C[C@H](NC(=O)[C@@]1(O)CCC2C3CCC4=Cc5c(cnn5-c5ccc(F)cc5)C[C@]4(C)C3[C@@H](O)C[C@@]21C)c1ccccc1 (stereo partly shown) [Compound 13]
IC50 (Table 2): 0.06 to 20 nM
Emax (Table 2): > 80%

CC12Cc3cnn(-c4ccc(F)cc4)c3C=C1CCC1C2[C@@H](O)CC2(C)C1CC[C@]2(O)C(=O)NCc1cn(Cc2ccccc2)nn1 (stereo partly shown) [Compound 14]
IC50 (Table 2): 0.06 to 20 nM
Emax (Table 2): > 80%

Cn1c(SCC(=O)[C@@]2(O)CCC3C4CCC5=Cc6c(cnn6-c6ccccc6)CC5(C)C4[C@@H](O)CC32C)nc2ccccc21 (stereo partly shown) [Compound 14]
IC50 (Table 1): 0.06 to 20 nM
Emax (Table 1): > 80%

CC12Cc3cnn(-c4ccccc4)c3C=C1CCC1C2[C@@H](O)CC2(C)C1CC[C@]2(O)C(=O)CSc1ccc2ccccc2n1 (stereo partly shown) [Compound 15]
IC50 (Table 1): 0.06 to 20 nM
Emax (Table 1): > 80%
